# In ChEMBL document CHEMBL5550161, “Discovery of novel small molecules targeting the USP21/JAK2/STAT3 axis for the treatment of triple-negative breast cancer” (Eur J Med Chem, 2024):
# Activity calls are given as the source filed them. The rule behind the calls is not given here.
# How the values were obtained:
# [1] = tested on: HCC1806; assay: Induction of apoptosis in human HCC1806 cells assessed as decrease in STAT3 level by Western blot analysis; format: functional, cell-based; conditions: dose 0.1-0.4 µM
# [2] = tested on: MDA-MB-231; assay: Induction of apoptosis in human MDA-MB-231 cells assessed as early apoptotic cells at 0.8 uM incubated for 24 hrs by Annexin V-FITC/PI staining based flow cytometry (reference value: 1.16 %); format: functional
# [3] = tested on: Hs-578T; assay: Anti-proliferative activity against human Hs-578T cells assessed as cell growth inhibition incubated for 72 hrs by MTT assay; format: functional, cell-based
# [4] = tested on: MDA-MB-231; assay: Induction of apoptosis in human MDA-MB-231 cells assessed as early apoptotic cells at 0.2 uM incubated for 24 hrs by Annexin V-FITC/PI staining based flow cytometry (reference value: 1.16 %); format: functional
# [5] = tested on: MCF7; assay: Anti-proliferative activity against human MCF7 cells assessed as cell growth inhibition incubated for 72 hrs by MTT assay; format: functional, cell-based; conditions: MCF7, 72 h
# [6] = tested on: HCC1806; assay: Induction of apoptosis in human HCC1806 cells assessed as late apoptotic cells at 0.8 uM incubated for 24 hrs by Annexin V-FITC/PI staining based flow cytometry (reference value: 0.23 %); format: functional
# [7] = tested on: MDA-MB-231; assay: Induction of apoptosis in human MDA-MB-231 cells assessed as ROS production rate at 0.1 uM incubated for 24 hrs by DCFH-DA staining based flow cytometry (reference value: 0.28 %); format: functional
# [8] = Toxicity in Balb/c nude mouse assessed as animal mortality at 60 mg/kg, ip bid for 14 days consecutively; format: organism-based; conditions: in vivo, 336 h, time 14 day
# [9] = tested on: HCC1806; assay: Induction of apoptosis in human HCC1806 cells assessed as viable cells at 0.8 uM incubated for 24 hrs by Annexin V-FITC/PI staining based flow cytometry (reference value: 98.95 %); format: functional; conditions: read-out: Activity
# [10] = tested on: MDA-MB-231; assay: Induction of apoptosis in human MDA-MB-231 cells assessed as viable cells at 0.2 uM incubated for 24 hrs by Annexin V-FITC/PI staining based flow cytometry (reference value: 97.54 %); format: functional; conditions: read-out: Activity
# [11] = tested on: MDA-MB-231; assay: Induction of apoptosis in human MDA-MB-231 cells assessed as necrotic cells at 0.4 uM incubated for 24 hrs by Annexin V-FITC/PI staining based flow cytometry (reference value: 0.07 %); format: functional
# [12] = tested on: MDA-MB-231; assay: Induction of apoptosis in human MDA-MB-231 cells assessed as ROS production rate at 0.4 uM incubated for 24 hrs by DCFH-DA staining based flow cytometry (reference value: 0.28 %); format: functional
# [13] = target: T1, Tyrosine-protein kinase JAK2 (Homo sapiens, UniProt O60674); assay: Induction of JAK2 degradation in human HCC1806 cells at 0.2 uM incubated for 18 to 72 hrs by Western blot analysis; format: cell-based; conditions: time 18-72 hrs
# T1 sequence (O60674 whole entry): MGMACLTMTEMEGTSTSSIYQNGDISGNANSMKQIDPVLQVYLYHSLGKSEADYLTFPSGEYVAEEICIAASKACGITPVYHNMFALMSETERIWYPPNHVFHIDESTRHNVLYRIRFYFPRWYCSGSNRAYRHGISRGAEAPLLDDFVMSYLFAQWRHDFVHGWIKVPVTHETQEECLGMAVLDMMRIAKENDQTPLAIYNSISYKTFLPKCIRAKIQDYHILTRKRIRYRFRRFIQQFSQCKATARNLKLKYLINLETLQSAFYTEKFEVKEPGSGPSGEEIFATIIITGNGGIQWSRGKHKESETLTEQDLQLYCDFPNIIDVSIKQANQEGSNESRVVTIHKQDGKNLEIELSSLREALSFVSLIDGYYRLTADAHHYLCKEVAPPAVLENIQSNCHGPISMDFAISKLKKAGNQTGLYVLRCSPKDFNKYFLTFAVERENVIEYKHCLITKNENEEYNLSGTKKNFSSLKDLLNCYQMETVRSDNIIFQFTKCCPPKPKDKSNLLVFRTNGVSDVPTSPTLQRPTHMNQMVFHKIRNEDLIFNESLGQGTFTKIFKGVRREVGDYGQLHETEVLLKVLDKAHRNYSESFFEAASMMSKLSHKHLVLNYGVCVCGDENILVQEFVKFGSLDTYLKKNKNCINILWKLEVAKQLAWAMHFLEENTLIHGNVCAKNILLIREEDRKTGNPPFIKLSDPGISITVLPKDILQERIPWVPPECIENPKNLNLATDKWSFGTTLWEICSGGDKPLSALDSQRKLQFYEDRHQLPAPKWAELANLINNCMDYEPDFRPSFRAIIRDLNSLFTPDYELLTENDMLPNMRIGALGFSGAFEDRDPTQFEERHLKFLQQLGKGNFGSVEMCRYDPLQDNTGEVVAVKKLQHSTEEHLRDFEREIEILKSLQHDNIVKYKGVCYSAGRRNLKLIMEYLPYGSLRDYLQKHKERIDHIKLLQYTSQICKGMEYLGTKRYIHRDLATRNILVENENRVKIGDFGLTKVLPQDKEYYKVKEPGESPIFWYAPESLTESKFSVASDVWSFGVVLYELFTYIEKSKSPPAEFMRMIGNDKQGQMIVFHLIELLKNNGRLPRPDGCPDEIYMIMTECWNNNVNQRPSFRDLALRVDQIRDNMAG
# [14] = tested on: HCC1806; assay: Induction of apoptosis in human HCC1806 cells assessed as early apoptotic cells at 0.1 uM incubated for 24 hrs by Annexin V-FITC/PI staining based flow cytometry (reference value: 0.67 %); format: functional
# [15] = Toxicity in Balb/c nude mouse assessed as histopathological change in heart at 60 mg/kg, ip bid for 14 days consecutively; format: organism-based; conditions: in vivo, 336 h, time 14 day
# [16] = target: T1, Tyrosine-protein kinase JAK2; assay: Induction of JAK2 degradation in Carfilzomib-treated human HCC1806 cells at 0.4 uM incubated for 24 hrs by Western blot analysis; format: cell-based
# [17] = Half life in Sprague-Dawley rat at 4 mg/kg, ip; format: ADME, organism-based; conditions: in vivo
# [18] = tested on: HCC1806; assay: Induction of apoptosis in human HCC1806 cells assessed as viable cells at 0.1 uM incubated for 24 hrs by Annexin V-FITC/PI staining based flow cytometry (reference value: 98.95 %); format: functional; conditions: read-out: Activity
# [19] = tested on: MDA-MB-231; assay: Induction of apoptosis in human MDA-MB-231 cells assessed as decrease in JAK1 level by Western blot analysis; format: functional, cell-based; conditions: dose 0.1-0.4 µM
# [20] = tested on: MDA-MB-231; assay: Induction of apoptosis in human MDA-MB-231 cells assessed as viable cells at 0.4 uM incubated for 24 hrs by Annexin V-FITC/PI staining based flow cytometry (reference value: 97.54 %); format: functional; conditions: read-out: Activity
# [21] = tested on: HCC1806; assay: Upregulation of JAK2 mRNA level in human HCC1806 cells at 0.2 uM incubated for 18 to 72 hrs; format: functional, cell-based; conditions: time 18-72 hrs
# [22] = tested on: HCC1806; assay: Induction of apoptosis in human HCC1806 cells assessed as early apoptotic cells at 0.4 uM incubated for 24 hrs by Annexin V-FITC/PI staining based flow cytometry (reference value: 0.67 %); format: functional
# [23] = tested on: MDA-MB-231; assay: Anti-proliferative activity against human MDA-MB-231 cells assessed as cell survival; format: functional; conditions: dose < 0.4 µM; time 24 hrs
# [24] = tested on: HCC1806; assay: Induction of apoptosis in human HCC1806 cells assessed as ROS production rate at 0.2 uM incubated for 24 hrs by DCFH-DA staining based flow cytometry (reference value: 0.23 %); format: functional
# [25] = tested on: MDA-MB-231; assay: Induction of apoptosis in human MDA-MB-231 cells assessed as decrease in Bcl-2 level by Western blot analysis; format: functional, cell-based; conditions: dose 0.1-0.4 µM
# [26] = tested on: HCC1806; assay: Induction of apoptosis in human HCC1806 cells assessed as ROS production rate at 0.1 uM incubated for 24 hrs by DCFH-DA staining based flow cytometry (reference value: 0.23 %); format: functional
# [27] = tested on: MDA-MB-231; assay: Induction of cell cycle arrest at G2/M phase in human MDA-MB-231 cells at 0.1 to 0.4 uM incubated for 24 hrs; format: functional, cell-based; conditions: dose 0.1-0.4 µM
# [28] = tested on: HCC1806; assay: Inhibition of cell migration in human HCC1806 cells; format: functional, cell-based; conditions: dose 0.05-2 µM
# [29] = tested on: HCC1806; assay: Induction of apoptosis in human HCC1806 cells assessed as necrotic cells at 1.6 uM incubated for 24 hrs by Annexin V-FITC/PI staining based flow cytometry (reference value: 0.15 %); format: functional
# [30] = tested on: HCC1806; assay: Induction of cell cycle arrest at G2/M phase in human HCC1806 cells at 0.1 to 0.4 uM incubated for 24 hrs; format: functional, cell-based; conditions: dose 0.1-0.4 µM
# [31] = tested on: HCC1806; assay: Induction of apoptosis in human HCC1806 cells assessed as decrease in JAK2 level by Western blot analysis; format: functional, cell-based; conditions: dose 0.1-0.4 µM
# [32] = tested on: MDA-MB-231; assay: Induction of apoptosis in human MDA-MB-231 cells assessed as decrease in STAT3 level by Western blot analysis; format: functional, cell-based; conditions: dose 0.1-0.4 µM
# [33] = tested on: HCC1806; assay: Induction of apoptosis in human HCC1806 cells assessed as decrease in JAK1 level by Western blot analysis; format: functional, cell-based; conditions: dose 0.1-0.4 µM
# [34] = tested on: HCC1806; assay: Downregulation of CUL5 level in human HCC1806 cells at 0.1 to 0.4 uM incubated for 24 hrs by Western blot analysis; format: functional, cell-based; conditions: dose 0.1-0.4 µM
# [35] = tested on: MDA-MB-231; assay: Anti-proliferative activity against human MDA-MB-231 cells assessed as reduction in EdU-positive cells at 0.2 uM; format: functional, cell-based
# [36] = tested on: HCC1806; assay: Induction of apoptosis in human HCC1806 cells assessed as late apoptotic cells at 0.4 uM incubated for 24 hrs by Annexin V-FITC/PI staining based flow cytometry (reference value: 0.23 %); format: functional
# [37] = tested on: HCC1806; assay: Antitumor activity against human HCC1806 cells xenografted in Balb/c mouse assessed as reduction in tumor weight at 40 to 60 mg/kg, ip bid measured after 14 days; format: functional, organism-based; conditions: dose 40-60 mg/kg, time 14.0 day
# [38] = tested on: MDA-MB-231; assay: Anti-proliferative activity against human MDA-MB-231 cells assessed as cell growth inhibition incubated for 72 hrs by MTT assay; format: functional, cell-based; conditions: MDA-MB-231, 72 h
structure (smiles),measurement,setting,value
COc1cc(Nc2cc(F)ccc2C(=O)NCCc2c[nH]c3c(F)ccc(F)c23)cc(OC)c1OC,Activity,[1],Active
same,Activity,[2],3.18%
same,IC50,[3],590 nM
same,Activity,[4],1.99%
same,IC50,[5],1450 nM
same,Activity,[6],1.48%
same,Activity,[7],0.61%
same,Activity,[8],Non-Toxic
same,viability at 0.8 µM,[9],94%
same,viability at 0.2 µM,[10],96.1%
same,Activity,[11],0.14%
same,Activity,[12],3.17%
same,Activity,[13],Active
same,Activity,[14],0.65%
same,Activity,[15],Non-Toxic
same,Activity,[16],Active
same,half-life,[17],5.57 h
same,viability at 0.1 µM,[18],99%
same,Activity,[19],Active
same,viability at 0.4 µM,[20],95.7%
same,Activity,[21],Active
same,Activity,[22],2.94%
same,Survival,[23],>80%
same,Activity,[24],2.3%
same,Activity,[25],Active
same,Activity,[26],0.66%
same,Activity,[27],Active
same,inhibition,[28],Active
same,Activity,[29],0.35%
same,Activity,[30],Active
same,Activity,[31],Active
same,Activity,[32],Active
same,Activity,[33],Active
same,Activity,[34],Active
same,Activity,[35],Active
same,Activity,[36],0.76%
same,Activity,[37],Active
same,IC50,[38],190 nM
